Data published in patent US20260109721A1, “IONIZABLE CATIONIC LIPIDS INCORPORATING SILICON: SYNTHESIS AND LNP FORMULATION” (priority 2023, published 2026).

Key:
HeLa cells [1] = test: Transfection efficiency with Luciferase (SecNLuc) mRNA, Nano-Glo assay (Method A); assay type: cell-based; conditions: Luc mRNA, 24 h, luminescence; for Transfection 10 ng mRNA: 10 ng mRNA/well; for Transfection 50 ng mRNA: 50 ng mRNA/well; for Transfection 100 ng mRNA: 100 ng mRNA/well
Experimental: (§1) The synthesized lipids were tested in term of in vitro transfection efficacy and toxicity on HeLa cells. In order to perform the mentioned biological tests, appropriate LNPs had to be formulated from the synthesized lipids. The formulation technique was different in Method A and B. The particle size, polydispersity index (PDI) and zeta potential of resulting LNPs were determined by means of Dynamic Light Scattering technique (DLS). Prior to biological testing the encapsulation efficiency (EE) of the loaded LNPs was determined by using RiboGreen RNA assay. In case of Method A Luc mRNA while in case of Method B GFP mRNA was transfected into the cells. In parallel with the transfection experiments, toxicity of the investigated LNPs was determined, in case of Method A resazurin assay while in case of Method B MTT assay was used. Additionally, the toxicity of the lipids was investigated on HepG2 cells and IC50 values were determined.
• 1. Prepare mRNA solution by adding 100 ng mRNA (SecNLuc, #P009024, RiboPro) to 5 μl Opti-MEM • multiply by number of wells, include different concentrations and add 10% extra • a standard set-up we use is 100 ng-50 ng-10 ng mRNA/well in triplicate, which would need […] mRNA (includes 10% extra)
• 2. (If applicable) Prepare different concentrations in Opti-MEM (for instance 100/50/10 ng). • 3. Add 10 μl to each well and mix carefully by pipetting. • 4. Mix by swirling the plate horizontally at modest speed. Reverse in direction 3 times. • 5. Incubate for 24 hours (incubator).
This protocol is applied to measure luciferase activity for secreted NanoLuc and is based on the protocol by Promega (Nano-Glo® Luciferase Assay System #N1110-1150). The protocol is designed for a 384-wells plate, but volumes can be changed accordingly for other plates.
• 1. Plate cells (HeLa) in 96-well plate, grow until 80% confluent and transfect with SecNanoLuc mRNA and incubate for the desired period (24 h). • 2. After incubation, the translated protein is accumulated in the medium. Transfer medium to a new plate or tubes. • 3. Transfer 12 μl of each sample to a black-walled, clear-bottom 384-well plate • Black-walled plates are important to prevent shine-through of luminescence from other wells; alternatively, multiple wells between samples can be left empty. • 4. Set-up plate reader • 5. Prepare the desired amount of Nano-Glo® Luciferase Assay Reagent by combining one volume of Nano-Glo® Luciferase Assay Substrate with 50 volumes of Nano-Glo® Luciferase Assay Buffer: • a. composition: 100 mM MES pH 6; 1 mM EDTA; […]; 150 mM KCl; 1 mM DTT; 35 mM Thiourea; • b. briefly spin tubes containing substrate in a microcentrifuge before use. • 6. Add and mix (by pipetting) 12 μl Nano-Glo® Luciferase Assay Reagent per well • Wait approximately 3 minutes before measuring luminescence. […] Measure luminescence in plate reader using standard protocol luciferase (this includes mixing sample in plate reader)

HeLa cells [2] = test: Cell viability assessment with resazurin assay (Method A); assay type: cell-based; conditions: human
Experimental: as §1
This protocol is used to determine the metabolic activity of cells as a measure for cell viability after exposure to potentially toxic substances. Resazurin is converted in mitochondria by reduction to resorufin, which has a much higher fluorescence at ˜600 nm compared to unconverted resazurin. A lower amount/percentage of conversion is correlated with reduced cellular metabolism and indirectly to cellular death and toxicity. Care must be taken with interpretation of the read-out, as 50% reduction in resazurin conversion may mean 50% reduction of cellular metabolism of 100% alive cells, or 50% of cells dead, and any combination in between.
• 1. Prepare 0.25 mg/ml stock solution resazurin in fresh cell culture medium. Resazurin is auto-reducing over time in solution, especially in medium, and fresh stocks should be prepared every 2-3 days. Stocks should be stored at 4° C. and protected from light. For HeLa cells, DMEM/F12 with 10% FCS is used. • 2. Dilute stock solution 10× in fresh cell culture medium to 0.025 mg/ml->ready for application on cells. For HeLa cells, DMEM/F12 with 10% FCS is used. • 3. Collect 96-well plate and replace cell-culture spent medium with 100 μl per well resazurin solution. Add some resazurin solution for background measurement in wells not containing cells. • 4. Incubate for 50 minutes in incubator at 37° C., 5% CO2, 95% RH. • 5. Transfer resazurin solution to a fresh 96- or 384-well plate. • 6. Measure in plate reader using 540/25 nm (excitation) and 610/40 nm (emission) using standard settings (PTM low/OD-1.0). • 7. Subtract the average background measurement from all samples. Set the average of the negative controls (well receiving OptiMEM only during transfection) to 100% and express all values as percentage of the control activity. Typically, at lower levels of treatment, elevation of metabolic activity is shown, whereas for toxic substances, at toxic concentrations sigmoidal curves can be obtained, with lower activity indicating higher toxicity.

SMILES | Transfection 10 ng mRNA (HeLa cells [1]) | Transfection 50 ng mRNA (HeLa cells [1]) | Transfection 100 ng mRNA (HeLa cells [1]) | Cell Viability % (Average metabolic rate over all doses, Resazurin) (HeLa cells [2]) [%]
CCCCC/C=C\C/C=C\CCCCCCCCOC(CCCCCCC/C=C\C/C=C\CCCCC)O[Si](C)(C)OCCCCCCN(CCO)CCO (stereo not drawn) [Example 48, (23Z,26Z)-13-((8Z,11Z)-heptadeca-8,11-dien-1-yl)-3-(2-hydroxyethyl)-11,11-dimethyl-10,12,14-trioxa-3-aza-11-siladotriaconta-23,26-dien-1-ol] | 5.52E+02 | 1.65E+03 | 1.82E+03 | 99
CCCCCCCC/C=C\CCCCCCCCOC(=O)C(C)(C)CC(OCCCCCCCC/C=C\CCCCCCCC)O[Si](C)(C)OCCCCCCN1CCOCC1 (stereo not drawn) [Example 85, (Z)-octadec-9-en-1-yl 4-((dimethyl((6-morpholinohexyl)oxy)silyl)oxy)-2,2-dimethyl-4-(((Z)-octadec-9-en-1-yl)oxy)butanoate] | 4.67E+00 | 3.23E+01 | 8.37E+01 | 110
CCCCC/C=C\C/C=C\CCCCCCCCOC(CCCCCCC/C=C\C/C=C\CCCCC)O[Si](C)(C)OCCCCCCN(CCCCO)CCCCO (stereo not drawn) [Example 62, (25Z,28Z)-15-((8Z,11Z)-heptadeca-8,11-dien-1-yl)-5-(4-hydroxybutyl)-13,13-dimethyl-12,14,16-trioxa-5-aza-13-silatetratriaconta-25,28-dien-1-ol] | 1.95E+05 | 8.70E+05 | 1.68E+06 | 89
CCCCC/C=C\C/C=C\CCCCCCCCOC(CCCCCCC/C=C\C/C=C\CCCCC)O[Si](C)(C)OCCCCCCN(C)C (stereo not drawn) [Example 79, (20Z,23Z)-10-((8Z,11Z)-heptadeca-8,11-dien-1-yl)-N,N,8,8-tetramethyl-7,9,11-trioxa-8-silanonacosa-20,23-dien-1-amine] | 2.45E+03 | 8.30E+04 | 2.01E+05 | 91
CCCCCCCC/C=C\CCCCCCCC(OCC(CCCCCCCC)SCCCCC)O[Si](C)(C)OCCCCCCN(CCO)CCO (stereo not drawn) [Example 72, (Z)-13-(heptadec-8-en-1-yl)-3-(2-hydroxyethyl)-11,11-dimethyl-16-octyl-10,12,14-trioxa-17-thia-3-aza-11-siladocosan-1-ol] | 2.05E+03 | 8.79E+04 | 3.60E+05 | 107
CCCCC/C=C\C/C=C\CCCCCCCCOC(CCCCCCC/C=C\C/C=C\CCCCC)O[Si](C)(C)OCCCCCCN1CCN(CCCCCCO[Si](C)(C)OC(CCCCCCC/C=C\C/C=C\CCCCC)OCCCCCCCC/C=C\C/C=C\CCCCC)CC1 (stereo not drawn) [Example 70, 1,4-bis((20Z,23Z)-10-((8Z,11Z)-heptadeca-8,11-dien-1-yl)-8,8-dimethyl-7,9,11-trioxa-8-silanonacosa-20,23-dien-1-yl)piperazine] | 6.46E+02 | 5.40E+03 | 2.07E+04 | 99
CCCCC/C=C\C/C=C\CCCCCCCCOC(CCCCCCC/C=C\C/C=C\CCCCC)O[Si](C)(C)OCCCCCCN(C)CCCCO (stereo not drawn) [Example 60, (25Z,28Z)-15-((8Z,11Z)-heptadeca-8,11-dien-1-yl)-5,13,13-trimethyl-12,14,16-trioxa-5-aza-13-silatetratriaconta-25,28-dien-1-ol] | 1.76E+05 | 1.12E+06 | 1.81E+06 | 88
CCCCCCCC/C=C\CCCCCCCCOC(=O)C(C)(C)CC(OCCCCCCCC/C=C\CCCCCCCC)O[Si](C)(C)OCCCCCCN(CCCCO)CCCCO (stereo not drawn) [Example 86, (Z)-octadec-9-en-1-yl 18-hydroxy-14-(4-hydroxybutyl)-2,2,6,6-tetramethyl-4-(((Z)-octadec-9-en-1-yl)oxy)-5,7-dioxa-14-aza-6-silaoctadecanoate] | 3.47E+04 | 4.82E+05 | 1.37E+06 | 96
CCCCC/C=C\C/C=C\CCCCCCCCOC(CCCCCCC/C=C\C/C=C\CCCCC)O[Si](C)(C)OCCCCCCN(C)[C@H](CO)Cc1ccccc1 (stereo partly drawn) [Example 77, (2S,23Z,26Z)-2-benzyl-13-((8Z,11Z)-heptadeca-8,11-dien-1-yl)-3,11,11-trimethyl-10,12,14-trioxa-3-aza-11-siladotriaconta-23,26-dien-1-ol] | 3.44E+02 | 2.55E+03 | 6.09E+03 | 112
CCCCCCCC/C=C\CCCCCCCCOC(=O)C(C)(C)CCC(OCCCCCCCC/C=C\CCCCCCCC)O[Si](C)(C)OCCCCCCN1CCOCC1 (stereo not drawn) [Example 95, (Z)-octadec-9-en-1-yl 5-((dimethyl((6-morpholinohexyl)oxy)silyl)oxy)-2,2-dimethyl-5-(((Z)-octadec-9-en-1-yl)oxy)pentanoate] | 1.22E+02 | 5.37E+02 | 9.82E+02 | 106
C#CCN(C)CCCCCCO[Si](C)(C)OC(CCCCCCC/C=C\C/C=C\CCCCC)OCCCCCCCC/C=C\C/C=C\CCCCC (stereo not drawn) [Example 67, (20Z,23Z)-10-((8Z,11Z)-heptadeca-8,11-dien-1-yl)-N,8,8-trimethyl-N-(prop-2-yn-1-yl)-7,9,11-trioxa-8-silanonacosa-20,23-dien-1-amine] | 2.42E+04 | 4.02E+05 | 1.79E+06 | 94
CCCCCCCC/C=C\CCCCCCCCOC(CC[C@@H](C)C1CCC2C3CCC4C[C@H](OC)CC[C@]4(C)C3CC[C@@]21C)O[Si](C)(C)OCCCCCCN(CCO)CCO (stereo partly drawn) [Example 51, (Z)-3-(2-hydroxyethyl)-13-((3R)-3-((3R,10S,13R)-3-methoxy-10,13-dimethylhexadecahydro-1H-cyclopenta[a]phenanthren-17-yl)butyl)-11,11-dimethyl-10,12,14-trioxa-3-aza-11-siladotriacont-23-en-1-ol] | 1.05E+04 | 1.70E+05 | 7.44E+05 | 92
